Assay results taken from PubChem BioAssay (NCI).
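Compound exposure: 48 hours, 5 concentrations, 96-well plates. TGI marks complete inhibition of growth.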

Assays:
Test in all cases: inhibition of tumour cell growth, NCI panel, 48 h
BT-549 breast = test system: BT-549 breast
786-0 renal = test system: 786-0 renal
IGROV1 ovarian = test system: IGROV1 ovarian
OVCAR-5 ovarian = test system: OVCAR-5 ovarian
SK-OV-3 ovarian = test system: SK-OV-3 ovarian
SW-620 colon = test system: SW-620 colon
UACC-257 melanoma = test system: UACC-257 melanoma
KM12 colon = test system: KM12 colon
OVCAR-3 ovarian = test system: OVCAR-3 ovarian
M14 melanoma = test system: M14 melanoma
SNB-19 CNS = test system: SNB-19 CNS
NCI-H522 lung = test system: NCI-H522 lung
HCC-2998 colon = test system: HCC-2998 colon
TK-10 renal = test system: TK-10 renal
UO-31 renal = test system: UO-31 renal
EKVX NSCLC = test system: EKVX NSCLC
MALME-3M melanoma = test system: MALME-3M melanoma
CAKI-1 renal = test system: CAKI-1 renal
SF-268 CNS = test system: SF-268 CNS
RXF 393 renal = test system: RXF 393 renal

Cc1ccc(C(=O)OCC(C)C)cc1N=NN(C)C
TGI (BT-549 breast): > 100 µM
TGI (786-0 renal): > 100 µM
TGI (IGROV1 ovarian): > 100 µM
TGI (OVCAR-5 ovarian): > 100 µM
TGI (SK-OV-3 ovarian): > 100 µM
TGI (SW-620 colon): > 100 µM
TGI (UACC-257 melanoma): 71.1 µM
TGI (KM12 colon): > 100 µM
TGI (OVCAR-3 ovarian): 90.6 µM
TGI (M14 melanoma): > 100 µM
TGI (SNB-19 CNS): > 100 µM
TGI (NCI-H522 lung): > 100 µM
TGI (HCC-2998 colon): > 100 µM
TGI (TK-10 renal): > 100 µM
TGI (UO-31 renal): > 100 µM
TGI (EKVX NSCLC): > 100 µM
TGI (MALME-3M melanoma): > 100 µM
TGI (CAKI-1 renal): > 100 µM
TGI (SF-268 CNS): > 100 µM

O=S(=O)(c1ccccc1)C1(CCC2OCCO2)C=CC2(CC1)OCCO2 (stereo unspecified)
TGI (BT-549 breast): > 100 µM
TGI (786-0 renal): > 100 µM
TGI (IGROV1 ovarian): > 100 µM
TGI (OVCAR-5 ovarian): > 100 µM
TGI (SK-OV-3 ovarian): > 100 µM
TGI (SW-620 colon): > 100 µM
TGI (UACC-257 melanoma): > 100 µM
TGI (OVCAR-3 ovarian): > 100 µM
TGI (M14 melanoma): > 100 µM
TGI (SNB-19 CNS): > 100 µM
TGI (HCC-2998 colon): > 100 µM
TGI (TK-10 renal): > 100 µM
TGI (UO-31 renal): > 100 µM
TGI (EKVX NSCLC): > 100 µM
TGI (MALME-3M melanoma): > 100 µM
TGI (SF-268 CNS): > 100 µM

COC(=O)CSC(=S)Nc1nnc(NC(=S)SCOC(C)=O)n1C(=S)SCC(=O)OC
TGI (BT-549 breast): > 100 µM
TGI (786-0 renal): > 100 µM
TGI (IGROV1 ovarian): > 100 µM
TGI (OVCAR-5 ovarian): > 100 µM
TGI (SW-620 colon): > 100 µM
TGI (UACC-257 melanoma): > 100 µM
TGI (KM12 colon): > 100 µM
TGI (OVCAR-3 ovarian): > 100 µM
TGI (M14 melanoma): > 100 µM
TGI (SNB-19 CNS): > 100 µM
TGI (HCC-2998 colon): > 100 µM
TGI (UO-31 renal): > 100 µM
TGI (EKVX NSCLC): > 100 µM
TGI (RXF 393 renal): > 100 µM
TGI (CAKI-1 renal): > 100 µM
TGI (SF-268 CNS): > 100 µM

CN(C)Cc1cc(C=O)cc(CN(C)C)c1O
TGI (BT-549 breast): > 100 µM
TGI (786-0 renal): > 100 µM
TGI (IGROV1 ovarian): > 100 µM
TGI (SW-620 colon): > 100 µM
TGI (UACC-257 melanoma): > 100 µM
TGI (KM12 colon): > 100 µM
TGI (OVCAR-3 ovarian): > 100 µM
TGI (SNB-19 CNS): > 100 µM
TGI (NCI-H522 lung): > 100 µM
TGI (HCC-2998 colon): > 100 µM
TGI (TK-10 renal): > 100 µM
TGI (UO-31 renal): > 100 µM
TGI (EKVX NSCLC): > 100 µM
TGI (MALME-3M melanoma): > 100 µM
TGI (RXF 393 renal): > 100 µM
TGI (SF-268 CNS): > 100 µM

COc1cc(N(Cc2ccc3nc(OC)c(OC)nc3c2)Cc2ccc3nc(OC)c(OC)nc3c2)cc(OC)c1OC
TGI (BT-549 breast): > 50 µM
TGI (786-0 renal): > 50 µM
TGI (OVCAR-5 ovarian): > 50 µM
TGI (SK-OV-3 ovarian): > 50 µM
TGI (SW-620 colon): > 50 µM
TGI (UACC-257 melanoma): > 50 µM
TGI (KM12 colon): > 50 µM
TGI (OVCAR-3 ovarian): > 50 µM
TGI (M14 melanoma): > 50 µM
TGI (SNB-19 CNS): 47.7 µM
TGI (NCI-H522 lung): > 50 µM
TGI (TK-10 renal): > 50 µM
TGI (UO-31 renal): > 50 µM
TGI (EKVX NSCLC): > 50 µM
TGI (MALME-3M melanoma): > 50 µM
TGI (RXF 393 renal): 41.6 µM
TGI (CAKI-1 renal): > 50 µM
TGI (SF-268 CNS): > 50 µM

Clc1cc(Br)c2c3c(c(Br)cc(Cl)c13)C(Br)=C2Br
TGI (BT-549 breast): 78 µM
TGI (786-0 renal): 47.7 µM
TGI (IGROV1 ovarian): 36.5 µM
TGI (OVCAR-5 ovarian): > 100 µM
TGI (SK-OV-3 ovarian): > 100 µM
TGI (SW-620 colon): > 100 µM
TGI (UACC-257 melanoma): > 100 µM
TGI (KM12 colon): > 100 µM
TGI (OVCAR-3 ovarian): > 100 µM
TGI (M14 melanoma): > 100 µM
TGI (SNB-19 CNS): > 100 µM
TGI (NCI-H522 lung): 38.8 µM
TGI (HCC-2998 colon): 38.6 µM
TGI (TK-10 renal): 46.6 µM
TGI (UO-31 renal): > 100 µM
TGI (EKVX NSCLC): > 100 µM
TGI (MALME-3M melanoma): > 100 µM
TGI (SF-268 CNS): 70.4 µM

O=c1[nH]c(=O)n(C2CC(O)C(CO)O2)cc1OCC1CCCCC1 (stereo unspecified)
TGI (BT-549 breast): > 100 µM
TGI (786-0 renal): > 100 µM
TGI (IGROV1 ovarian): > 100 µM
TGI (OVCAR-5 ovarian): > 100 µM
TGI (SK-OV-3 ovarian): > 100 µM
TGI (UACC-257 melanoma): > 100 µM
TGI (KM12 colon): > 100 µM
TGI (OVCAR-3 ovarian): > 100 µM
TGI (M14 melanoma): > 100 µM
TGI (SNB-19 CNS): > 100 µM
TGI (NCI-H522 lung): > 100 µM
TGI (TK-10 renal): > 100 µM
TGI (UO-31 renal): > 100 µM
TGI (EKVX NSCLC): > 100 µM
TGI (MALME-3M melanoma): > 100 µM
TGI (RXF 393 renal): > 100 µM
TGI (CAKI-1 renal): > 100 µM
TGI (SF-268 CNS): > 100 µM

CC(=O)N1CC(=O)N2C(=O)/C(=C/c3ccc(Cl)cc3)N=C12
TGI (BT-549 breast): > 100 µM
TGI (786-0 renal): > 100 µM
TGI (OVCAR-5 ovarian): > 100 µM
TGI (SK-OV-3 ovarian): > 100 µM
TGI (SW-620 colon): > 100 µM
TGI (UACC-257 melanoma): > 100 µM
TGI (KM12 colon): > 100 µM
TGI (OVCAR-3 ovarian): > 100 µM
TGI (M14 melanoma): > 100 µM
TGI (SNB-19 CNS): > 100 µM
TGI (HCC-2998 colon): > 100 µM
TGI (TK-10 renal): > 100 µM
TGI (UO-31 renal): > 100 µM
TGI (EKVX NSCLC): > 100 µM
TGI (MALME-3M melanoma): > 100 µM
TGI (RXF 393 renal): > 100 µM
TGI (CAKI-1 renal): > 100 µM
TGI (SF-268 CNS): > 100 µM

Cc1ccc(-c2nc(-c3cnccn3)n(C3OC(CO)C(O)C(O)C3O)n2)cc1 (stereo unspecified)
TGI (BT-549 breast): > 100 µM
TGI (786-0 renal): > 100 µM
TGI (IGROV1 ovarian): > 100 µM
TGI (OVCAR-5 ovarian): > 100 µM
TGI (SW-620 colon): > 100 µM
TGI (UACC-257 melanoma): > 100 µM
TGI (KM12 colon): > 100 µM
TGI (OVCAR-3 ovarian): > 100 µM
TGI (M14 melanoma): > 100 µM
TGI (SNB-19 CNS): > 100 µM
TGI (NCI-H522 lung): > 100 µM
TGI (HCC-2998 colon): > 100 µM
TGI (TK-10 renal): > 100 µM
TGI (UO-31 renal): > 100 µM
TGI (EKVX NSCLC): > 100 µM
TGI (RXF 393 renal): > 100 µM
TGI (SF-268 CNS): > 100 µM

CC(=O)O[C@H]1CCC2[C@@H]3CCC4Cc5nc6c(nc5C[C@]4(C)C3CC[C@@]21C)CC1CC[C@@H]2C(CC[C@@]3(C)C2CC[C@@H]3C(C)CCCC(C)C)[C@@]1(C)C6 (stereo partly specified)
TGI (BT-549 breast): > 100 µM
TGI (786-0 renal): > 100 µM
TGI (IGROV1 ovarian): > 100 µM
TGI (OVCAR-5 ovarian): > 100 µM
TGI (SK-OV-3 ovarian): > 100 µM
TGI (SW-620 colon): > 100 µM
TGI (UACC-257 melanoma): > 100 µM
TGI (KM12 colon): > 100 µM
TGI (OVCAR-3 ovarian): > 100 µM
TGI (M14 melanoma): > 100 µM
TGI (SNB-19 CNS): > 100 µM
TGI (TK-10 renal): > 100 µM
TGI (UO-31 renal): > 100 µM
TGI (EKVX NSCLC): > 100 µM
TGI (MALME-3M melanoma): > 100 µM
TGI (RXF 393 renal): > 100 µM
TGI (SF-268 CNS): > 100 µM

O=c1[nH]c(-n2[nH]c3c(c2=O)CCCC3)nc(O)c1-c1ccccc1
TGI (BT-549 breast): > 100 µM
TGI (786-0 renal): > 100 µM
TGI (IGROV1 ovarian): > 100 µM
TGI (OVCAR-5 ovarian): > 100 µM
TGI (SK-OV-3 ovarian): > 100 µM
TGI (SW-620 colon): > 100 µM
TGI (UACC-257 melanoma): > 100 µM
TGI (KM12 colon): > 100 µM
TGI (M14 melanoma): > 100 µM
TGI (SNB-19 CNS): > 100 µM
TGI (NCI-H522 lung): > 100 µM
TGI (TK-10 renal): > 100 µM
TGI (UO-31 renal): > 100 µM
TGI (EKVX NSCLC): > 100 µM
TGI (MALME-3M melanoma): > 100 µM
TGI (RXF 393 renal): > 100 µM
TGI (CAKI-1 renal): > 100 µM
TGI (SF-268 CNS): > 100 µM

O=[N+]([O-])c1cc(Cl)cc2cc(Br)cnc12
TGI (BT-549 breast): > 31.6 µM
TGI (786-0 renal): > 31.6 µM
TGI (IGROV1 ovarian): > 23.7 µM
TGI (OVCAR-5 ovarian): > 31.6 µM
TGI (SW-620 colon): > 31.6 µM
TGI (UACC-257 melanoma): > 31.6 µM
TGI (OVCAR-3 ovarian): > 31.6 µM
TGI (M14 melanoma): > 31.6 µM
TGI (SNB-19 CNS): > 31.6 µM
TGI (NCI-H522 lung): > 31.6 µM
TGI (HCC-2998 colon): > 31.6 µM
TGI (TK-10 renal): > 31.6 µM
TGI (UO-31 renal): > 31.6 µM
TGI (EKVX NSCLC): > 31.6 µM
TGI (MALME-3M melanoma): > 31.6 µM
TGI (RXF 393 renal): > 31.6 µM

CC(O)C1(CNc2cc(Cl)nc(N)n2)CC(CCc2ccccc2)C1 (stereo unspecified)
TGI (BT-549 breast): 33.6 µM
TGI (786-0 renal): 39 µM
TGI (IGROV1 ovarian): 28.4 µM
TGI (OVCAR-5 ovarian): 33.9 µM
TGI (SK-OV-3 ovarian): 29.2 µM
TGI (SW-620 colon): 29.3 µM
TGI (UACC-257 melanoma): 19.8 µM
TGI (KM12 colon): 27.7 µM
TGI (OVCAR-3 ovarian): 33.7 µM
TGI (M14 melanoma): 33.4 µM
TGI (SNB-19 CNS): 34 µM
TGI (NCI-H522 lung): 21.8 µM
TGI (TK-10 renal): 43.1 µM
TGI (UO-31 renal): 24.6 µM
TGI (EKVX NSCLC): 37.3 µM
TGI (MALME-3M melanoma): 26.4 µM
TGI (RXF 393 renal): 30.8 µM
TGI (CAKI-1 renal): 29.4 µM
TGI (SF-268 CNS): 29.4 µM
